Experimental data reported in patent US20050154537A1, “Methods, program products, and systems for single and multi-agent dosing and other related methods” (priority 2003, published 2005).

Tested on: ANC
Experiment: Chemotherapeutic doublet cycle dose modifier (Taxol, Gemzar), ANC marker
Type: in vivo
Settings: ANC of patient on doublet
Text: Gemzar and Taxol are used in this example as dual agents. Table 2 illustrates a method of revising a drug dose in treating a patient with two pharamcologic and non-pharmacological modalities to optimize pharmacologic outcome, e.g., to reduce risk of an adverse drug event while assessing the clinical relevancy and validity of the measured surrogate markers.
Previous Level of Toxicity-Efficacy (PLTE) is a value directly entered such as from a lab report. It is the numerical value of the marker of toxicity or efficacy reported at the previous dose cycle adjustment (evaluated at a specified elapsed time sufficient to capture the nadir of the dose effect). The surrogate marker is selected when the dose modifier is constructed.
Current Level of Toxicity-Efficacy (CLTE) is a value directly entered such as from a lab report. It is the numerical value of the marker of toxicity or efficacy reported with the current dose cycle. The surrogate marker is that value that illustrates the expression of the toxicity or efficacy of the agent on a specific and pre-selected value determined when the dose modifier is constructed. […] If valid, then the value is fully appreciated and the dose modification can be calculated. […]
Projected Marker Agent 1 (Taxol) (PM1) is calculated by a dose modifier. […]
Projected Marker Agent 2 (Gemzar) (PM2) is calculated by a dose modifier. […]

CC(=O)O[C@H]1C(=O)[C@@]2(C)[C@H]([C@H](OC(=O)c3ccccc3)[C@]3(O)C[C@H](OC(=O)[C@H](O)[C@@H](NC(=O)c4ccccc4)c4ccccc4)C(C)=C1C3(C)C)[C@]1(OC(C)=O)CO[C@@H]1C[C@@H]2O [Taxol]
Current Level of Toxicity/CLTEM1 (current cycle total dose Taxol 300, Gemzar 6200, marker 9 days after dose): 1.50
Previous Level of Toxicity/PLTEM1 (previous cycle total dose Taxol 385, Gemzar 7650): 1.00
